Reference: patent US6392098B1, “Conformationally restricted polyamines” (Wisconsin Alumni Research Foundation, priority 1997, dated 2002)
pIC50: −log10 of the molar value. Where a name gives a salt, the structure may show the parent alone.

Experiments:
[1] = system: brain cancer cells U251MG-NCI; test: Growth of U251MG-NCI cells at fixed drug concentration (viable cells over days); type: cell-based, human
Description: FIGS. 7 and 8 depict the effect of fixed doses of 10 μM and 40 μM of the subject compounds, respectively, on the growth of the human brain cancer cell line U251MG-NCI. Here, the X-axis represents time in days, and the Y-axis represents the total number of viable cells.
Human breast cancer cell line MCF7 was grown in Richter's Improved Modified Eagle's Medium supplemented with 10% fetal bovine serum (FBS) and 2.2 g/L sodium bicarbonate. Human brain cancer cell line U251MG-NCI was grown in Dulbecco's Modified Eagle's Medium supplemented with 10% FBS. Human lung cancer cell line A549 was grown in Ham's F-12K medium (Fisher Scientific, Itasca, Ill.), supplemented with 10% FBS and 2 mM L-glutamine. Human colon cancer cell line HT29 was cultured in McCoy's 5A medium (Gibco, BRL, Gaithersburg, Md.), supplemented with 10% FBS. Human prostate cancer cell line PC3 was grown in Dulbecco's Modified Eagles Medium supplemented with 5% FBS. The A549 and MCF7 cell lines were cultured in 100 units/mL penicillin and 100 μg/mL streptomycin. HT29 and U251MG cell lines were grown in 50 μg/mL gentamycin. PC3 cell lines were maintained in 1% antibiotic-antimycotic solution (Sigma, St. Louis, Mo.). […]
Here, the above-identified compounds were administered in a 10 μM dose to cultures of the human brain cancer cell line U251MG-NCI and evaluated according to the standard protocol described above. […]

[2] = system: human brain cancer cells U251 MG; test: MTT cell survival assay, U251MG NCI; type: cell-based; conditions: six days after drug treatment, read-out: Cytotoxic Activity Human Tumor Cell Lines ID50 U251MG NCl
Description: Human breast cancer cell line MCF7 was grown in Richter's Improved Modified Eagle's Medium supplemented with 10% fetal bovine serum (FBS) and 2.2 g/L sodium bicarbonate. Human brain cancer cell line U251MG-NCI was grown in Dulbecco's Modified Eagle's Medium supplemented with 10% FBS. […] Human prostate cancer cell line PC3 was grown in Dulbecco's Modified Eagles Medium supplemented with 5% FBS. […] The cell cultures were maintained at 37° C. in 5% CO2/95% humidified air.
Here, a conventional MTT assay was used to evaluate percent cell survival. Exponentially growing monolayer cells were plated in 96-well plates at a density of 500 cells per well and allowed to grow for 24 hours. Serial dilutions of the drugs were added to the wells. Six days after drug treatment, 25 μl of MTT solution (5 mg/ml) was added to each well and incubated for 4 hours at 37° C. Then 100 μl of lysis buffer (20% sodium dodecyl sulfate, 50% DMF, and 0.8% acetic acid, pH 4.7) was added to each well and incubated for an additional 22 hours. A microplate reader (“EMAX”-brand, Molecular Devices, Sunnyvale, Calif.) set at 570 nm was used to determine the optical density of the cultures. Results are expressed as a ratio of the optical density in drug-treated wells to the optical density in wells treated with vehicle only.
The ID50 is the drug concentration that killed 50% of the cultured cells.

SMILES	melting point	also measured
CCNCCCNCC1CCC1CNCCCNCC (stereo not drawn) (as salt: hydrochloride) [SL-11044, N-Ethyl-N′-(2-(3′-ethylamino-propylaminomethyl)-trans-cyclobutylmethyl)-propane1,3-diamine tetrahydrochloride]	77 to 78 °C	
CCNCCCNC1CCC1NCCCNCC (centres unmarked) [SL-11034]		effect on growth of U251MG-NCI cells ([1]; 40 μM concentration): marked inhibition of cell growth
CCNCCCNCC1CC1CNCCCNCC (stereo not drawn) [SL-11038, N-Ethyl-N′-(2-(3′-ethylamino-propylaminomethyl)-trans-cyclopropylmethyl)-propane-1,3-diamine tetrahydrochloride]		pIC50 [2]: 7.00
CCNCCCNCC1CC1CNCCCNCC (stereo not drawn) (as salt: hydrochloride) [SL-11038, N-Ethyl-N′-(2-(3′-ethylamino-propylaminomethyl)-trans-cyclopropylmethyl)-propane-1,3-diamine tetrahydrochloride]	270 °C (dec.)	

Further lines, with some results ahead:

melting point	SMILES	also measured
240 °C (dec.)	CCNCCCNC[C@@H]1C[C@@H]1CNCCCNCC (as salt: hydrochloride) [SL-11037, N-Ethyl-N′-(2-(3′-ethylamino-propylaminomethyl)-cis-cyclopropylmethyl)-propane 1,3-diamine tetrahydrochloride]	
92 to 93 °C	CCNCCCNC[C@H]1CC[C@H]1CNCCCNCC (as salt: hydrochloride) [SL-11043, N-Ethyl-N′-(2-(3′-ethylamino-propylaminomethyl)-cis-cyclobutylmethyl)-propane1,3-diamine tetrahydrochloride]	
240 °C (dec.)	CCNCCCNC1CC1NCCCNCC (centres unmarked) [SL-11027]	effect on growth of U251MG-NCI cells ([1]; 10 μM concentration): marked inhibition of cell growth
